Data on 7 molecules can be found in patent US11259516B2, “Method and apparatus for capsular delivery to plants” (priority 2017, dated 2022).

SMILES strings stand for the structures.

The test system of series [1] is Mimosa pigra (Mimosa). Details: key: X indicates that the given herbicide is suitable for controlling the given weed. As to conditions: cited from earlier work.
Series [2] relates to Cryptostegia grandiflora (Rubber vine). Details: key: X indicates that the given herbicide is suitable for controlling the given weed. As to conditions: cited from earlier work.
Series [3] relates to Vachellia nilotica (Prickly acacia). Details: key: X indicates that the given herbicide is suitable for controlling the given weed. The settings on record: cited from earlier work.
For series [4], the system named is western white gum (Eucalyptus argophloia). The experiment in a line: Example 2: glyphosate and hexazinone capsules, thinning trial in western white gum plantation. The procedure:
The trial for this example was established at the HQP plantation near Jandowae on 6 Feb. 2018. The trees were planted in rows 4 m apart at 1.5 m spacing. Trees were 6-10 m tall. Trees to be maintained were marked and the other trees were treated.
Four treatments were used, with capsules as follows:
The capsules used were HPMC Size 0 Natural TR.V700 colour cap and body Vcaps (Suzhou Capsugel® Ltd, China). Capsules were hand packed using a Capsugel Profiller apparatus (https://www.capsugel.com/biopharmaceutical-products/profiller). An embodiment of apparatus 10 adapted to include handle 2201 (FIG. 17) was used to drill a hole into the stem, insert the herbicide capsule and seal with a wooden plug.
Herbicide capsules were applied to approximately 10 trees for each of the treatments. The number of capsules applied to each tree was independent of tree circumference which was measured at chest height. The tree circumferences range was from 20 to 34 centimetres. At 4 weeks, a small sample of trees were cut down with a chainsaw and cross-sections of stems containing the sites of insertion of the herbicide capsules removed. These stem pieces were returned to the laboratory and split open longitudinally through the insertion point. Tree health was assessed at 11 weeks (24 Apr. 2018) on a 0-4 scale with 0 being dead and 4 being healthy. Observations were made for evidence of flashback in untreated trees.

In series [5] the test system is Ailanthus altissima (Tree-of-heaven). On the set-up: key: X indicates that the given herbicide is suitable for controlling the given weed. The settings on record: cited from earlier work.
Series [6] relates to Acacia spp (Wattles). Details: key: X indicates that the given herbicide is suitable for controlling the given weed. The settings on record: cited from earlier work.
Series [7] concerns Eucalyptus spp (Box, Eucalypt). On the set-up: key: X indicates that the given herbicide is suitable for controlling the given weed. As to conditions: cited from earlier work.
Series [8] has as its system Lycium ferocissium (African boxthom). On the set-up: key: X indicates that the given herbicide is suitable for controlling the given weed. The settings on record: cited from earlier work.
The subject of series [9] is Parkinsonia aculeata (Parkinsonia). Details: key: X indicates that the given herbicide is suitable for controlling the given weed. The settings on record: cited from earlier work.
Series [10] relates to Schinus terebinthifolius (Broad-leafed pepper tree). Details: key: X indicates that the given herbicide is suitable for controlling the given weed. As to conditions: cited from earlier work.
Series [11] relates to Phoenix spp (Palms). Details: key: X indicates that the given herbicide is suitable for controlling the given weed. As to conditions: cited from earlier work.
For series [12], the system named is Tamarix aphylla (Athel pine). Details: key: X indicates that the given herbicide is suitable for controlling the given weed. The settings on record: cited from earlier work.
Series [13] relates to Cascabela thevetia (Yellow oleander). On the set-up: key: X indicates that the given herbicide is suitable for controlling the given weed. As to conditions: cited from earlier work.
Series [14] deals with Harungana madagarcariensis (Harungana). On the set-up: key: X indicates that the given herbicide is suitable for controlling the given weed. The settings on record: cited from earlier work.
Series [15] deals with Angophora spp (Apple). Details: key: X indicates that the given herbicide is suitable for controlling the given weed. As to conditions: cited from earlier work.
Series [16] has as its system Rubus anglocandicans (Blackberry). Details: key: X indicates that the given herbicide is suitable for controlling the given weed. As to conditions: cited from earlier work.
Series [17] concerns Chamaecytisus palmensis (Tree lucerne). On the set-up: key: X indicates that the given herbicide is suitable for controlling the given weed. The settings on record: cited from earlier work.
The subject of series [18] is Lantana camara (Lantana). Details: key: X indicates that the given herbicide is suitable for controlling the given weed. As to conditions: cited from earlier work.
In series [19] the test system is Ligustrum sinense (Chinese privet). On the set-up: key: X indicates that the given herbicide is suitable for controlling the given weed. As to conditions: cited from earlier work.
Series [20] has as its system Caesalpinia decapetala (Thorny poinciana). Details: key: X indicates that the given herbicide is suitable for controlling the given weed. As to conditions: cited from earlier work.
Series [21] has as its system Bursaria spinosa (Australian blackthorn). Details: key: X indicates that the given herbicide is suitable for controlling the given weed. As to conditions: cited from earlier work.
In series [22] the test system is Jatropha gossypiifolia (Bellyache bush). On the set-up: key: X indicates that the given herbicide is suitable for controlling the given weed. The settings on record: cited from earlier work.
In series [23] the test system is Senna pendula (Winter senna). On the set-up: key: X indicates that the given herbicide is suitable for controlling the given weed. The settings on record: cited from earlier work.
Series [24] concerns Ligustrum lucidum (Broad leaf privet). On the set-up: key: X indicates that the given herbicide is suitable for controlling the given weed. The settings on record: cited from earlier work.
Series [25] concerns Senegalia catechu (Cutch tree). Details: key: X indicates that the given herbicide is suitable for controlling the given weed. As to conditions: cited from earlier work.
The subject of series [26] is Salix species (Willows). Details: key: X indicates that the given herbicide is suitable for controlling the given weed. As to conditions: cited from earlier work.
Series [27] concerns Ziziphus mauritania (Chinee apple). Details: key: X indicates that the given herbicide is suitable for controlling the given weed. The settings on record: cited from earlier work.
Series [28] relates to Solanum mauritianum (Wild tobacco tree). On the set-up: key: X indicates that the given herbicide is suitable for controlling the given weed. The settings on record: cited from earlier work.
In series [29] the test system is Leucaena leucocephala (Leucaena). On the set-up: key: X indicates that the given herbicide is suitable for controlling the given weed. The settings on record: cited from earlier work.
Series [30] relates to Leptospermum spp. (Tea trees). On the set-up: key: X indicates that the given herbicide is suitable for controlling the given weed. The settings on record: cited from earlier work.
Series [31] deals with Azadirachta indica (Neem). On the set-up: key: X indicates that the given herbicide is suitable for controlling the given weed. The settings on record: cited from earlier work.
Series [32] has as its system Acer negudo (Box elder). On the set-up: key: X indicates that the given herbicide is suitable for controlling the given weed. The settings on record: cited from earlier work.
Series [33] relates to Prosopis spp (Mesquite). Details: key: X indicates that the given herbicide is suitable for controlling the given weed. As to conditions: cited from earlier work.
The subject of series [34] is Ricinus communis (Castor oil plant). On the set-up: key: X indicates that the given herbicide is suitable for controlling the given weed. The settings on record: in vivo; cited from earlier work.
Series [35] relates to Banksia spp (Bottlebrush). On the set-up: key: X indicates that the given herbicide is suitable for controlling the given weed. As to conditions: cited from earlier work.
Series [36] concerns Cestrum parqui (Green cestrum). Details: key: X indicates that the given herbicide is suitable for controlling the given weed. The settings on record: cited from earlier work.
In series [37] the test system is Cinnamonum camphora (Camphor laurel). Details: key: X indicates that the given herbicide is suitable for controlling the given weed. The settings on record: cited from earlier work.
Series [38] has as its system Olea europea sbsp europa (European olive). On the set-up: key: X indicates that the given herbicide is suitable for controlling the given weed. As to conditions: cited from earlier work.
The test system of series [39] is Olea europea sbsp africana (African olive). Details: key: X indicates that the given herbicide is suitable for controlling the given weed. As to conditions: cited from earlier work.
Series [40] concerns Crataegus sinaica (Azarola). On the set-up: key: X indicates that the given herbicide is suitable for controlling the given weed. The settings on record: cited from earlier work.

With `COc1c(Cl)ccc(Cl)c1C(=O)O` [Dicamba], the “suitability of herbicide for control of weed” value (“suitability of herbicide” below) in series [1] and in [2] was “X” each time.
Regarding `CN(C)C(=O)Nc1ccc(Cl)c(Cl)c1` [Diuron], the “suitability of herbicide” value in series [3] is “X”.
For `CN(C)c1nc(=O)n(C2CCCCC2)c(=O)n1C` [Hexazinone], the “trees died / killed (health rating 0-4 scale, 0 dead)” value in series [4] (Eucalyptus argophloia, 11 weeks post treatment, 1 or 2 capsules per tree) is “only a small percentage of trees killed”. Also, the “plant health (yellowing of the foliage)” value in series [4] (Eucalyptus argophloia, 11 weeks, 1 or 2 capsules per tree) was “obvious deterioration in plant health”. In addition, in series [4] (in vivo), the “flashback in the trees marked for retention” value is reported as “no flashback was observed”. The “suitability of herbicide” value in series [5], in [6], in [7], in [3], in series [8] and in series [9] was “X” each time. The “suitability of herbicide” value in series [2] is recorded as “X”.
On to `CC(C)C1(C)N=C(c2ncccc2C(=O)O)NC1=O` (centres unmarked) [Imazapyr], for which the “suitability of herbicide” value in series [10], in series [11], in series [12], in [5], in series [13] and in series [2] was “X” each time. Also, the “suitability of herbicide” value in series [14] is on record as “X”.
With `COC(=O)c1ccccc1S(=O)(=O)NC(=O)Nc1nc(C)nc(OC)n1` [Metsulfuron-methyl], the “suitability of herbicide” value in [15], in [16], in series [17], in series [18], in series [1] and in [19] was “X” throughout. In addition, the “suitability of herbicide” value in series [5], in [20], in [6], in series [7], in series [21] and in series [22] was “X” each time. The “suitability of herbicide” value in series [2], in [23], in series [24] and in series [14] was “X” each time.
On to `Nc1c(Cl)c(Cl)nc(C(=O)O)c1Cl` [Picloram], for which the “suitability of herbicide” value in series [10], in [25], in series [26], in series [16], in series [17] and in [18] was “X” throughout. The “suitability of herbicide” value in series [27], in [28], in series [6], in [29], in series [8] and in series [30] was “X” throughout. The “suitability of herbicide” value in series [31] and in series [24] was “X” in each case.
For `O=C(O)COc1nc(Cl)c(Cl)cc1Cl` [Triclopyr], the “suitability of herbicide” value in series [10], in series [11], in [25], in series [15], in series [16] and in [18] was “X” in each case. Also, the “suitability of herbicide” value in series [32], in series [27], in series [33], in [12], in series [19] and in [34] was “X” throughout. Also, the “suitability of herbicide” value in series [5], in [6], in [7], in series [3], in series [21] and in [8] was “X” in each case. Also, the “suitability of herbicide” value in series [35], in [36], in [37], in series [38], in [31] and in series [2] was “X” each time. For the same molecule, the “suitability of herbicide” value in series [24], in series [39] and in [40] was “X” throughout.
